Reference: patent US20200405752A1, “ANTITUMOR AGENT, ANTITUMOR EFFECT ENHANCER, AND ANTITUMOR KIT” (FUJIFILM Corporation, priority 2018, published 2020)

Test system: human cholangiocarcinoma cell line TFK-1 (spheroid culture)
Experiment: Cell viability (CellTiter Glo) of TFK-1 in spheroid culture in combination with cisplatin
Type: cell-based
Conditions: for viability at 0.001 µM / viability at 0.003 µM / viability at 0.01 µM / viability at 0.03 µM / viability at 0.1 µM / viability at 0.3 µM / viability at 1 µM / viability at 3 µM / viability at 10 µM / IC50: Homo sapiens; for viability at 0.001 µM / viability at 0.003 µM / viability at 0.01 µM / viability at 0.03 µM / viability at 0.1 µM / viability at 0.3 µM / viability at 1 µM / viability at 3 µM / viability at 10 µM: 72 h, TFK-1 spheroid, with cisplatin 10 μmol/L, 3 days; for viability at 0.001 µM: test substance 1.0 nM; for viability at 0.003 µM: test substance 3.0 nM; for viability at 0.01 µM: test substance 10.0 nM; for viability at 0.03 µM: test substance 30.0 nM; for viability at 0.1 µM: test substance 100.0 nM; for viability at 0.3 µM: test substance 300.0 nM; for viability at 1 µM: test substance 1000.0 nM; for viability at 3 µM: test substance 3000.0 nM; for viability at 10 µM: test substance 10000.0 nM; for IC50 / CI: TFK-1 spheroid culture; for CI: combination with cisplatin
Source text: On the combinational effect of the embodiment of the invention, the results of evaluation using a combination index (CI) which is a quantitative index of the combinational effect are shown. The CI can be calculated by the following equation according to Cancer Research, 2010, Vol. 70, pp. 440 to 446.
That is, in a case where the drugs to be used in combination are drug 1 and drug 2, the CI at a certain drug concentration is
CI={(cell viability in case of using drug 1 and drug 2 in combination)/100}/{[(cell viability in case of using drug 1)/100]×[(cell viability in case of using drug 2)/100]}
Evaluation of Antitumor Activity Against Cholangiocarcinoma Cell Line TFK-1 by Combined Use of Cisplatin in Spheroid Culture
Gemcitabine, cisplatin, and methanesulfonate of Compound A were used as test substances.
Gemcitabine hydrochloride (manufactured by Plantex Co., Ltd.) dissolved in dimethyl sulfoxide (DMSO) was used as gemcitabine. Cisplatin (Cat. #039-20091, manufactured by Wako Pure Chemical Industries, Ltd.) dissolved in DMSO was used as cisplatin.
Human cholangiocarcinoma cell line TFK-1 cells were subcultured in RPMI-1640 medium supplemented with 10% serum (Cat. #10437-028, manufactured by Thermo Fisher Scientific Inc.). During this test, all cell cultures were carried out in a CO2 incubator (set to 37° C. and 5% CO2, saturated with water vapor). The culture was diluted with 10% serum-supplemented medium to a cell density of 5000 cells/well/100 μL, and seeded on an Ultra-Low Attachment 96-well plate (Cat. #7007, manufactured by Corning Incorporated). The cells were cultured for 4 days to form spheroids.
The methanesulfonate of Compound A and gemcitabine were dissolved in DMSO to prepare 10 mmol/L DMSO solutions thereof. The thus-prepared DMSO solutions were diluted sequentially with DMSO to prepare DMSO solutions having a final treatment concentration of 1000-fold dilution. Cisplatin was dissolved in DMSO to prepare a 100 mmol/L DMSO solution. The thus-prepared DMSO solution of cisplatin was diluted with DMSO to prepare a DMSO solution having a final treatment concentration of 5000-fold dilution. Further, the DMSO solution of cisplatin was diluted with 10% serum-supplemented medium to prepare a cisplatin-containing medium having a final treatment concentration of 10-fold dilution. The DMSO diluted solutions of Compound A and gemcitabine were diluted with the cisplatin-containing medium to prepare treatment liquids having a final treatment concentration of 10-fold dilution. Compound A and gemcitabine were used with a maximum concentration of 10 μmol/L at a common ratio of 1/3 and 9 concentrations in combination with cisplatin (10 μmol/L).
10 μL of Compound A or gemcitabine diluted with the cisplatin-containing medium was added to each well. In addition, a group in which only a solvent containing no drug was added to wells in which cells were seeded (positive control), and a group in which only a solvent containing no drug was added to wells containing only a medium (negative control) were provided. All groups were set to n=3 well.
The cells were cultured for 3 days after the addition of the drug, and the cell viability was evaluated using a CellTiter Glo (registered trademark) Reagent (Cat. #G7570, manufactured by Promega Corporation) with the intracellular ATP level as an index. The concentration that inhibits cell viability by 50% (IC50 value) was calculated using XLFit software Ver.3 (registered trademark, manufactured by CTC Laboratory Systems Corporation).
The cell viability of each well was determined with the luminescence signal level of the negative control being 0% cell viability and the luminescence signal level of the positive control being 100% cell viability. The average value and standard deviation of the cell viability of each treatment group were calculated to prepare Table 9.

SMILES	viability at 0.001 µM	viability at 0.003 µM	viability at 0.01 µM	viability at 0.03 µM	viability at 0.1 µM	viability at 0.3 µM	viability at 1 µM	viability at 3 µM	viability at 10 µM	IC50 (in combination with cisplatin (5 μmol/L))	CI	IC50 (in combination with cisplatin (10 μmol/L))
Nc1ccn([C@@H]2S[C@H](CO)[C@@H](O)[C@@H]2F)c(=O)n1 [Compound A, 1-(2-deoxy-2-fluoro-4-thio-β-D-arabinofuranosyl)cytosine]	97%	101%	96%	91%	90%	65%	23%	14%	9%	469 nM	0.13	–
Nc1ccn([C@@H]2O[C@H](CO)[C@@H](O)C2(F)F)c(=O)n1 [Gemcitabine]	97%	97%	97%	89%	90%	83%	83%	77%	66%	–	0.78	≥ 10000 nM
